From patent US10670605B2, “Cysteine reactive probes and uses thereof” (The Scripps Research Institute, priority 2015, dated 2020)
One block for each molecule: values may come before it.

Legend:
Assay in all cases: Competitive isoTOP-ABPP in situ (fragment-treated cells)
Type in all cases: cell-based
[1] = target: cysteines in MDA-MB-231 and Ramos cells (Homo sapiens, UniProt P48643)
[2] = target: cysteines in MDA-MB-231 and Ramos cells (Homo sapiens, UniProt Q9UJW0); conditions: 200 μM, insitu
[3] = target: cysteines in MDA-MB-231 and Ramos cells (Homo sapiens, UniProt O14980); conditions: for isoTOP-ABPP ratio O14980_C528: 200 μM, insitu
[4] = target: T1, cysteines in MDA-MB-231 and Ramos cells (Homo sapiens, UniProt Q96F86); conditions: for isoTOP-ABPP ratio Q96F86_C413: 200 μM, insitu
T1 sequence (Q96F86 1-508): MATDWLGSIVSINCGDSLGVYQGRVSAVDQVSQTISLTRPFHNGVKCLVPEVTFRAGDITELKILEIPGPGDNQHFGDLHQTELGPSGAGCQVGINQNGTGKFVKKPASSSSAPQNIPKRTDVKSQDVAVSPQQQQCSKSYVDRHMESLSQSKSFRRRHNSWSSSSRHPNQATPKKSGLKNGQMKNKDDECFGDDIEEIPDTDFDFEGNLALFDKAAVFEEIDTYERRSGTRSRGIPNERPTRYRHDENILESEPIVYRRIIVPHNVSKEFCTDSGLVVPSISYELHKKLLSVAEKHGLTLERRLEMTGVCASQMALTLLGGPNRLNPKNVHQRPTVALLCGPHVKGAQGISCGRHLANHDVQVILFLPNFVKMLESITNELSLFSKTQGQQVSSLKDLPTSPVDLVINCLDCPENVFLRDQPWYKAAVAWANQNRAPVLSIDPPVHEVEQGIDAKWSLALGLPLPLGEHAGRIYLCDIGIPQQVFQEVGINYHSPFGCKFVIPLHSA

[5] = target: T2, cysteines in MDA-MB-231 and Ramos cells (Homo sapiens, UniProt Q86W42); conditions: 200 μM, insitu, 231
T2 sequence (Q86W42 1-341): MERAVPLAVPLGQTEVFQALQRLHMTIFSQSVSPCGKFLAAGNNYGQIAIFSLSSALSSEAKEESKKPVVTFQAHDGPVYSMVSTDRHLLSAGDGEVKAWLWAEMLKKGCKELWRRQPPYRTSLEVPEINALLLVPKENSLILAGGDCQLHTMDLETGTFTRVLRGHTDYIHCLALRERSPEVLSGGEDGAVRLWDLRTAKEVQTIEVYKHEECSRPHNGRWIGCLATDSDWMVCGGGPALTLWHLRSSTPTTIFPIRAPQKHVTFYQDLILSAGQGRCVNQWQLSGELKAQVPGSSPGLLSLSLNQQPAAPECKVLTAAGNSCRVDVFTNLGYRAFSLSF

[6] = target: T3, cysteines in MDA-MB-231 and Ramos cells (Homo sapiens, UniProt Q86UY8); conditions: 200 μM, insitu, 231
T3 sequence (Q86UY8 1-548): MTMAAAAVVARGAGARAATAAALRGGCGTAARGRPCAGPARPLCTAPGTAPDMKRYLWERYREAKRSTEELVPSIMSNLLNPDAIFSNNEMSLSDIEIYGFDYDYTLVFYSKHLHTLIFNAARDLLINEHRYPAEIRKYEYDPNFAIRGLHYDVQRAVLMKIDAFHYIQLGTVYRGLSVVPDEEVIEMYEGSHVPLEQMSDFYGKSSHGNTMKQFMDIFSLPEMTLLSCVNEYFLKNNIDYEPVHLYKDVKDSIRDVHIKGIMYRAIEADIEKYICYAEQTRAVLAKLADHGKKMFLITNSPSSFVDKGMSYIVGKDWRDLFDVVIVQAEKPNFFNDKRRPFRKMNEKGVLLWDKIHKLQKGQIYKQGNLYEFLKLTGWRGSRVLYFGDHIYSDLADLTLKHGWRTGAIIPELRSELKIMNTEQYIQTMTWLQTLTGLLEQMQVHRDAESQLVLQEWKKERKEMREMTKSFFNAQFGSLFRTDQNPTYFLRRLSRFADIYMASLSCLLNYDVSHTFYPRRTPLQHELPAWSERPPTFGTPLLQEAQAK

[7] = target: cysteines in MDA-MB-231 and Ramos cells (Homo sapiens, UniProt Q9UNI6)
[8] = target: cysteines in MDA-MB-231 and Ramos cells (Homo sapiens, UniProt P14635); conditions: 200 μM, insitu
[9] = target: T4, cysteines in MDA-MB-231 and Ramos cells (Homo sapiens, UniProt Q96EB1)
T4 sequence (Q96EB1 1-424): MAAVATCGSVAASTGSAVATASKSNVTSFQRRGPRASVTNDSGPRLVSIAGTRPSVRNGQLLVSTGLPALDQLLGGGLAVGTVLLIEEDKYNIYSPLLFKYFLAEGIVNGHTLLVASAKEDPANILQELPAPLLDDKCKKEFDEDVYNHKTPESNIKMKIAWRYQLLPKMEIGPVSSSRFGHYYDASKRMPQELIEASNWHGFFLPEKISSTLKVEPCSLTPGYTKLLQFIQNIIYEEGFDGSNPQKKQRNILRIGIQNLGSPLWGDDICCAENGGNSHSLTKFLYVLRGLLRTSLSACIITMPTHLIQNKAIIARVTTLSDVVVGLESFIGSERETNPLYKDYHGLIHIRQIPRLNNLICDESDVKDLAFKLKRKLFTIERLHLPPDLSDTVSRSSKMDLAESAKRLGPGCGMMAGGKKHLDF

[10] = target: cysteines in MDA-MB-231 and Ramos cells (Homo sapiens, UniProt P35658); conditions: for isoTOP-ABPP ratio P35658_C728: 200 μM, insitu
[11] = target: cysteines in MDA-MB-231 and Ramos cells (Homo sapiens, UniProt P53634)
[12] = target: T5, cysteines in MDA-MB-231 and Ramos cells (Homo sapiens, UniProt Q86YH6); conditions: for isoTOP-ABPP ratio Q86YH6_C71: 200 μM, insitu
T5 sequence (Q86YH6 1-399): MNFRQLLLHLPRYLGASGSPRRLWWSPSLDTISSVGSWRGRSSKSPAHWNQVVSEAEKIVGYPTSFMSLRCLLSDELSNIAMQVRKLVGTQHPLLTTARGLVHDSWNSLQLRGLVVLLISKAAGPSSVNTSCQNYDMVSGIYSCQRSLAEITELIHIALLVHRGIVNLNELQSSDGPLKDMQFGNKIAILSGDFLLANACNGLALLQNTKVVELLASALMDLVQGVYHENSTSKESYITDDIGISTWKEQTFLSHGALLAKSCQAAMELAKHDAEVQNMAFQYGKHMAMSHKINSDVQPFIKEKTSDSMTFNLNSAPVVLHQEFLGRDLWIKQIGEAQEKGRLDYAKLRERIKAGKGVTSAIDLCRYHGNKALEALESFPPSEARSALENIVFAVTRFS

Chain of cysteines in MDA-MB-231 and Ramos cells (Homo sapiens, UniProt P35658) (P35658 whole entry): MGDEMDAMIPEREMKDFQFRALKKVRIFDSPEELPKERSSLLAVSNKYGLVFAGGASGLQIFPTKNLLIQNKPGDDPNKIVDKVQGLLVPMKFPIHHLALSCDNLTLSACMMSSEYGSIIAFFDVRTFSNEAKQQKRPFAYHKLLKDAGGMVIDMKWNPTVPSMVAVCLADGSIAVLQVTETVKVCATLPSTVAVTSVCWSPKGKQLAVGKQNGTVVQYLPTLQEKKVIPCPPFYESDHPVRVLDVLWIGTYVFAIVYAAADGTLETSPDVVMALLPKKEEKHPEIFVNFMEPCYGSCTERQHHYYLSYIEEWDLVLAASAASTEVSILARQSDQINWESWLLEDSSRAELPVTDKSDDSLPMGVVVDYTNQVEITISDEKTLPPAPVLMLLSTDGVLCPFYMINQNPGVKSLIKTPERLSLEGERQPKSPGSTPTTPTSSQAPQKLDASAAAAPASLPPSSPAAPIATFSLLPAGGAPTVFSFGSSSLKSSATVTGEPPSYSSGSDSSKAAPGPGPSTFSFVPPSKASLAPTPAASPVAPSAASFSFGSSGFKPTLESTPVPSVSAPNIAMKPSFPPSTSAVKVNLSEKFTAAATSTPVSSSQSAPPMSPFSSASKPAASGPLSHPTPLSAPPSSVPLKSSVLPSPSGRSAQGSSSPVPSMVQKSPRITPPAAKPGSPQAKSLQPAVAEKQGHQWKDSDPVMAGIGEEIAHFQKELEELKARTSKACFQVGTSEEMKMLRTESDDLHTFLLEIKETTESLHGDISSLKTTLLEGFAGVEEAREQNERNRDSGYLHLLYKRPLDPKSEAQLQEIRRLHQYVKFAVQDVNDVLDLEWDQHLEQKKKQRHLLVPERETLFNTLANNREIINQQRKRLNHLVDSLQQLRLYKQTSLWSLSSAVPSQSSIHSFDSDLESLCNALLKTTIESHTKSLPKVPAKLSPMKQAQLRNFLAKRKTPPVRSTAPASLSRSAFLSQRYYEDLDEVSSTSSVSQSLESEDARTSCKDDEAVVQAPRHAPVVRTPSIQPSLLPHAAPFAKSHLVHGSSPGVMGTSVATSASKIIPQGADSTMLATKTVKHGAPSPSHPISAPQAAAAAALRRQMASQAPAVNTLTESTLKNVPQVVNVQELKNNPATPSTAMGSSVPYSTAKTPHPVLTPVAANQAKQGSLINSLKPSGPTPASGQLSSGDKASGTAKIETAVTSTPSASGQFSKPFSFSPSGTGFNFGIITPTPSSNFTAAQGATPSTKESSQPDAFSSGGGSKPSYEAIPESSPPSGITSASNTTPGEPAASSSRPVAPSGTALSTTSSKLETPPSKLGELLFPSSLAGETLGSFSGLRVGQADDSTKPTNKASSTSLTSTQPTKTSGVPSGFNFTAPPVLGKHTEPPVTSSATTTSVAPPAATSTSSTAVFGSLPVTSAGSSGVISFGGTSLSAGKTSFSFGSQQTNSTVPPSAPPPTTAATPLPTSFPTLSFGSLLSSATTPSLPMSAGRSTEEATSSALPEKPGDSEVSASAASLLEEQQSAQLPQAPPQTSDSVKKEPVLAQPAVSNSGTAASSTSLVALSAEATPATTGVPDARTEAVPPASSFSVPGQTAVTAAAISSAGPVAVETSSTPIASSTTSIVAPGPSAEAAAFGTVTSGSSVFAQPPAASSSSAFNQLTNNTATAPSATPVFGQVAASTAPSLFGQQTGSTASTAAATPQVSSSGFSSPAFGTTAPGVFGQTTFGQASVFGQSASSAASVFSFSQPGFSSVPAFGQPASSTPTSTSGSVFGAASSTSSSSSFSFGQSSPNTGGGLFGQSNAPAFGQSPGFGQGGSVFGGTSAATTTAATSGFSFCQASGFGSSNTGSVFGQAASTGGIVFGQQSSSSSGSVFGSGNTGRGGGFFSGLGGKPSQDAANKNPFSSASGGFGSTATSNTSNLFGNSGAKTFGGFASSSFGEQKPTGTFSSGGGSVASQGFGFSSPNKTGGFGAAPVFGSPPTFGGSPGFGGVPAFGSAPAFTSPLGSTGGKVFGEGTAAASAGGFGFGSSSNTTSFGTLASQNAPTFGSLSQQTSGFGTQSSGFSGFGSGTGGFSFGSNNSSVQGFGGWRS
Chain of cysteines in MDA-MB-231 and Ramos cells (Homo sapiens, UniProt P48643) (P48643 whole entry): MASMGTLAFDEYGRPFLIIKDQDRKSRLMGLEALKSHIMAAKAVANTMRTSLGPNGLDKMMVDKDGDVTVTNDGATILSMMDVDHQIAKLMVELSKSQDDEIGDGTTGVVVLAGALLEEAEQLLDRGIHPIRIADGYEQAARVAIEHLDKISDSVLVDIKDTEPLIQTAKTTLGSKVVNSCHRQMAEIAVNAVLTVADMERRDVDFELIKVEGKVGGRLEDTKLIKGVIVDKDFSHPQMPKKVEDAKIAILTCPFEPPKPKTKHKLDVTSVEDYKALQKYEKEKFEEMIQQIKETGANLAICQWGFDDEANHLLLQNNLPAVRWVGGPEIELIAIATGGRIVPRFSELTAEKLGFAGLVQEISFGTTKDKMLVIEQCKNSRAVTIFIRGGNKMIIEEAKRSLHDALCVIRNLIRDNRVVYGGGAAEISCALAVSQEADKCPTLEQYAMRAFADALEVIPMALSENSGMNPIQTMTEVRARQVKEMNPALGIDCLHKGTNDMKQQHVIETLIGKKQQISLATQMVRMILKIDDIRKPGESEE
Chain of cysteines in MDA-MB-231 and Ramos cells (Homo sapiens, UniProt Q9UJW0) (Q9UJW0 whole entry): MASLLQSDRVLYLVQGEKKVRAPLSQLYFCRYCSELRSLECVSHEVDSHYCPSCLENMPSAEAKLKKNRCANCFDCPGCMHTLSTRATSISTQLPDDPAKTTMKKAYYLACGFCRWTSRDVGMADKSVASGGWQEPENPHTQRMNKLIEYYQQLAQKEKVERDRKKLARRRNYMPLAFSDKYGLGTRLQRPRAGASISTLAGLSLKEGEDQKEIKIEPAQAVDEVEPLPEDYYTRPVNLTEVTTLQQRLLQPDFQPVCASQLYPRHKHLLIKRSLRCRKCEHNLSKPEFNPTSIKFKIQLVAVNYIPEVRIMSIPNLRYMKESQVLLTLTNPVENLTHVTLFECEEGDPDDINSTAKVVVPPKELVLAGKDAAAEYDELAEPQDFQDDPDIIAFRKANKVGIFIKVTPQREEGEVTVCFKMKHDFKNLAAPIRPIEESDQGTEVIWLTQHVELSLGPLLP
Chain of cysteines in MDA-MB-231 and Ramos cells (Homo sapiens, UniProt O14980) (O14980 whole entry): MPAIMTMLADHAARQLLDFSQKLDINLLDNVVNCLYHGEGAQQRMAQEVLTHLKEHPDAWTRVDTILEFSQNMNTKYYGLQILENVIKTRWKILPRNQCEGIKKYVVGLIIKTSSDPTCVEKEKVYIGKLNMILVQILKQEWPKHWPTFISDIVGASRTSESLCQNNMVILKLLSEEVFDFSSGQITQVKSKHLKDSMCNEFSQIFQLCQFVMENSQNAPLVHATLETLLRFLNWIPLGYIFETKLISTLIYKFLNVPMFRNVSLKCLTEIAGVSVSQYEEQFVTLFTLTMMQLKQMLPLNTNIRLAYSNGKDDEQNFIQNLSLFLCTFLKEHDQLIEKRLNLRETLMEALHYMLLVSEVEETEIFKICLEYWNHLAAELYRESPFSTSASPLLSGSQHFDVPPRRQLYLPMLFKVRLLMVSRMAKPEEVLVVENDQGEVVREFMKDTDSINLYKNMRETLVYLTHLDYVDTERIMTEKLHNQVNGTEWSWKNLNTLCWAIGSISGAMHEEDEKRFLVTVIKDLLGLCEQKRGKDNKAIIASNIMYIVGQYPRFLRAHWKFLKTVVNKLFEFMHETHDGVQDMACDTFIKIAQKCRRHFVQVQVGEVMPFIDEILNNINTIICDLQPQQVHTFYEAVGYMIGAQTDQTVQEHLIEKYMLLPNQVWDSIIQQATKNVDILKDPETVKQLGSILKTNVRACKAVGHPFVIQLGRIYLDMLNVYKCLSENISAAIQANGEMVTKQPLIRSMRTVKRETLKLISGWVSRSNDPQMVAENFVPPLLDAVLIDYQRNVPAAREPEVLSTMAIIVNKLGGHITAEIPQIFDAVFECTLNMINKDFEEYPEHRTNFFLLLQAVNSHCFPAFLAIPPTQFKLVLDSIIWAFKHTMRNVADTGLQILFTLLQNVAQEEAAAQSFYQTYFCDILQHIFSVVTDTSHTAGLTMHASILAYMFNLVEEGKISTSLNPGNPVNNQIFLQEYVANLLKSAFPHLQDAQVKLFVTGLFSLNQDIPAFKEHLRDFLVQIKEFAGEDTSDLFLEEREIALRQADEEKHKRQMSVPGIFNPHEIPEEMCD
Chain of cysteines in MDA-MB-231 and Ramos cells (Homo sapiens, UniProt P14635) (P14635 whole entry): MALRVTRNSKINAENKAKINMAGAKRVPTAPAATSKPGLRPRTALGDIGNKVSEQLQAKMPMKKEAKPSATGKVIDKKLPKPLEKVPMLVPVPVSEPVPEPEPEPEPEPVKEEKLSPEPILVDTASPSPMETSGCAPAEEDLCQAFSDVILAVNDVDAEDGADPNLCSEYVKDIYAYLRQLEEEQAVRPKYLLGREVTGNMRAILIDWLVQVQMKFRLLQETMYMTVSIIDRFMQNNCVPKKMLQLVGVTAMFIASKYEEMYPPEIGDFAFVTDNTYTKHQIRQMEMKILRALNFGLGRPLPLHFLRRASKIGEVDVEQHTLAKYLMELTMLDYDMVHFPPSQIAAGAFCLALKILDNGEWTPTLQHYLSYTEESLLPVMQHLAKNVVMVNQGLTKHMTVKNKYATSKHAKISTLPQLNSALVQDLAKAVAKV
Chain of cysteines in MDA-MB-231 and Ramos cells (Homo sapiens, UniProt P53634) (P53634 25-463): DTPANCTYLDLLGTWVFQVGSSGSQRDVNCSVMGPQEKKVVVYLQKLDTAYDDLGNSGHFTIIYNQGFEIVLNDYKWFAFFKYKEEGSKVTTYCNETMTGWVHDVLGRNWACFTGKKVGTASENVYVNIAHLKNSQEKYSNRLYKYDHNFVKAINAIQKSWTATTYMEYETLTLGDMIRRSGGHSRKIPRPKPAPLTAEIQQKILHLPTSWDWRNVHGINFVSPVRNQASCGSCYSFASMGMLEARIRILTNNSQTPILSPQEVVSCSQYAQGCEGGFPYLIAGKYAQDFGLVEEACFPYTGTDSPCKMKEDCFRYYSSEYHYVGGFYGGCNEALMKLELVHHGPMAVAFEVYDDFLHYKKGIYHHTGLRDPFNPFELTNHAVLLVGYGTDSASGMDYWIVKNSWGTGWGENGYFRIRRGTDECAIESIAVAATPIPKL

isoTOP-ABPP ratio P48643_C253 ([1]; 200 μM, insitu, 231): 0.8
isoTOP-ABPP ratio Q9UJW0_C258 [2]; 231: 1.1
isoTOP-ABPP ratio O14980_C528 [3]; 231: 1.1
isoTOP-ABPP ratio Q96F86_C413 [4]; 231: 20.0
isoTOP-ABPP ratio Q86W42_C35 [5]: 1.4
isoTOP-ABPP ratio Q86UY8_C276 [6]: 1.2
Compound: O=C(CCl)Nc1cccc2ncccc12 [compound 51]

isoTOP-ABPP ratio P48643_C253 ([1]; 200 μM, insitu, 231): 1.1
isoTOP-ABPP ratio O14980_C528 [3]; 231: 2.1
isoTOP-ABPP ratio Q86W42_C35 [5]: 0.8
isoTOP-ABPP ratio Q9UNI6_C265 ([7]; 200 μM, insitu, 231): 1.0
isoTOP-ABPP ratio P14635_C238 [8]; 231: 1.8
isoTOP-ABPP ratio Q96EB1_C218 ([9]; 200 μM, insitu, 231): 1.3
Compound: C=CC(=O)Nc1cc(F)c(N2CCN(C(=O)OC(C)(C)C)CC2)c(F)c1 [compound 38]

isoTOP-ABPP reactivity P48643_C253 CCT5 ([1]; 200 μM, insitu, 231): 0.8
isoTOP-ABPP reactivity Q9UJW0_C258 DCTN4 [2]; 231: 20.0
Compound: COc1cc2c(cc1OC)CN(C(=O)CCl)CC2 [compound 8]

isoTOP-ABPP ratio P48643_C253 ([1]; 200 μM, insitu, 231): 0.5
isoTOP-ABPP ratio P48643_C253 ([1]; 200 μM, insitu, ramos): 1.0
isoTOP-ABPP ratio Q96F86_C413 ([4]; ramos): 1.3
isoTOP-ABPP ratio Q86W42_C35 [5]: 0.5
isoTOP-ABPP ratio P35658_C728 [10]; 231: 0.7
Compound: C=CC(=O)N(Cc1cccnc1)c1cc(C(F)(F)F)cc(C(F)(F)F)c1 [compound 31]

isoTOP-ABPP ratio Q9UJW0_C258 ([2]; ramos): 1.9
isoTOP-ABPP ratio O14980_C528 [3]; 231: 1.1
isoTOP-ABPP ratio O14980_C528 ([3]; ramos): 1.1
isoTOP-ABPP ratio Q96F86_C413 [4]; 231: 1.6
isoTOP-ABPP ratio Q96F86_C413 ([4]; ramos): 2.0
isoTOP-ABPP ratio, cysteine P53634_C258 ([11]; 200 μM, insitu, 231): 1.6
isoTOP-ABPP ratio Q86YH6_C71 [12]; 231: 1.2
isoTOP-ABPP ratio Q86YH6_C71 ([12]; ramos): 1.8
isoTOP-ABPP ratio P35658_C728 [10]; 231: 1.0
isoTOP-ABPP ratio, cysteine P14635_C238 [8]; 231: 1.3
isoTOP-ABPP ratio, cysteine P14635_C238 ([8]; ramos): 1.5
isoTOP-ABPP ratio, cysteine Q96EB1_C218 ([9]; 200 μM, insitu, 231): 1.2
isoTOP-ABPP ratio, cysteine Q96EB1_C218 ([9]; 200 μM, insitu, ramos): 1.7
isoTOP-ABPP ratio Q86UY8_C276 [6]: 1.5
Compound: O=C(CCl)NCCc1c[nH]c2ccccc12 [compound 13]

isoTOP-ABPP reactivity Q86W42_C35 THOC6 [5]: 20.0
isoTOP-ABPP reactivity P14635_C238 CCNB1 [8]; 231: 3.7
isoTOP-ABPP reactivity Q96EB1_C218 ELP4 ([9]; 200 μM, insitu, 231): 8.4
Compound: O=C(CCl)N1CCC(Cc2ccccc2)CC1 [compound 9]

isoTOP-ABPP reactivity P48643_C253 CCT5 ([1]; 100 μM in situ 231): 0.8
isoTOP-ABPP reactivity O14980_0528 XPO1 ([3]; 100 μM in situ 231): 1.9
isoTOP-ABPP reactivity Q96F86_C413 EDC3 ([4]; 100 μM in situ 231): 20.0
isoTOP-ABPP reactivity P53634_C258 CTSC ([11]; 100 μM in situ 231): 1.2
isoTOP-ABPP reactivity Q86YH6_C71 PDSS2 ([12]; 100 μM in situ 231): 20.0
isoTOP-ABPP reactivity P35658_C728 NUP214 ([10]; 100 μM in situ 231): 1.7
isoTOP-ABPP reactivity Q9UNI6_C265 DUSP12 ([7]; 100 μM in situ 231): 0.8
isoTOP-ABPP reactivity Q96EB1_C218 ELP4 ([9]; 100 μM in situ 231): 20.0
Compound: COc1ccc(C2CC(c3cccs3)=NN2C(=O)CCl)cc1 (centres unmarked) [compound 4]

isoTOP-ABPP ratio Q9UJW0_C258 ([2]; ramos): 20.0
isoTOP-ABPP ratio O14980_C528 ([3]; ramos): 1.1
isoTOP-ABPP ratio Q96F86_C413 ([4]; ramos): 1.9
isoTOP-ABPP ratio Q86YH6_C71 ([12]; ramos): 1.1
isoTOP-ABPP ratio P35658_C728 ([10]; ramos): 1.7
isoTOP-ABPP ratio Q96EB1_C218 ([9]; 200 μM, insitu, ramos): 1.1
Compound: O=C(CCl)N1CCN(CC(=O)N2CCOCC2)CC1 [compound 29]
